Laboratory results as given in patent US20180291070A1, “PEPTIDES, AND USES THEREOF” (priority 2015, published 2018).

Test system: GLUT4
Test: GLUT4myc translocation in L6 myotubes
Type: cell-based
Conditions: 100 nM, 30 mins
Description: We determined the effect of six synthetic peptides (SP1-6) and four peptide compositions on in vitro GLUT4 translocation using the L6 rat skeletal muscle cell line. A clone of the L6 cell line containing overexpression of GLUT4 tagged with a c-myc epitope (courtesy of Prof. Amira Klip, Hospital for Sick Children, Toronto) was used to investigate the efficacy of each synthetic peptide and peptide composition for effects on GLUT4 translocation in a dose-response design.
L6-GLUT4myc cells were grown in 10% FBS and 2 μg/ml blasticidin. Cells were grown for 48-72 hours before being seeded in 24-well plates at 15,000 cells per well in 2% FBS and allowed to differentiate for 6 to 8 days prior to experimentation.
L6-GLUT4myc cells were serum-starved for three hours prior to incubation with 100 nM of insulin for 30 mins, or 200, 20, 2.0 and 0.2 μM of SP, and 2, 1, 0.5 and 0.25 mg/ml of peptide composition for 3 hours respectively. A 3 hour incubation period was selected based on previous findings identifying that incubation with branch chain amino acid containing di-peptides for 3 hours increases glucose uptake in L6 myotubes 1. Treatments were staggered in order to determine GLUT4myc translocation at the same time point.
The quantity of myc-tagged GLUT4 at the cell surface was measured by antibody-coupled colorimetric assay. Briefly, after incubation with either insulin for 30 mins or synthetic peptide or peptide composition for 3 hours respectively, L6-GLUT4myc cells were fixed via incubation with 3% paraformaldehyde (PFA). A 0.1 M glycine solution was then added to quench PFA and cells were blocked with 5% goat serum. The myotube monolayer was exposed to anti-myc antibody and then incubated with peroxidase conjugated donkey anti-mouse IgG. 1 mL of o-phenylenediamine dihydrochloride (OPD) reagent was added to each well and this reaction was stopped by adding […] of 3 M HCL. To determine GLUT4 translocation to cell surface, a measured aliquot of each condition was determined spectrophotometrically on a plate reader using absorbance at 492 nm.
In addition to an untreated control, 100 nM insulin was utilised to stimulate a maximal GLUT4 translocation response i.e. a positive control in each experiment. […] Treatments were staggered so that all conditions (untreated, insulin and sample) were processed at the same time-point.

## insulin [reference compound]
  average increase in cell surface GLUT4 translocation compared to untreated control: 1.72 fold
